Reference: PMC2074523, “Bioavailability and pharmacokinetics of oral topotecan: a new topoisomerase I inhibitor” (British Journal of Cancer, 1996)
“And” between values parts separate entries of the source, which are not always exact repeats. Equal values may be shown once. Where a name gives a salt, the structure may show the parent alone.

Tests used:
clinical = details: for Vd: 1.5 mg m-2, volume of distribution at steady state (Vd,ss)
Text: British Journal of Cancer (1996) 73, 1268-1271 ff* (C) 1996 Stockton Press All rights reserved 0007-0920/96 $12.00 Bioavailability and pharmacokinetics of oral topotecan: a new topoisomerase I inhibitor JHM Schellens', GJ Creemers', JH Beijnen2, H Rosing2, M de Boer-Dennert', M McDonald3, B Davies4 and J Verweij' 'Department of Medical Oncology, Rotterdam Cancer Institute, 3075 EA Rotterdam, The Netherlands; 2Slotervaart Hospital, Amsterdam, The Netherlands; 3SmithKline & Beecham, UK; 4SmithKline & Beecham, USA. […] The oral dose of 1.5 mg m 2 was administered as a drinking solution of 200 ml on day 1. The i.v. dose of 1.5 mg m-2 was administered as a 30 min continuous infusion on day 2. The bioavailability was calculated as the ratio of the oral to i.v. area under the curve (AUC) calculated up to the last measured time point. […] Keywords: topotecan; bioavailability; topoisomerase I inhibitor Topotecan (SKF 104864) [(S)-9-dimethylaminomethyl-10- hydroxycamptothecin hydrochloride] is a semisynthetic water-soluble analogue of camptothecin (Hsiang and Liu, 1988). Like camptothecin, topotecan is a specific inhibitor of topoisomerase I (Hsiang and Liu, 1988). Topotecan incorporates a stable basic side-chain at the 9-position of the A-ring, which provides water solubility at acid pH. Topotecan is converted to its lactone ring-opened hydrolysis product (hydroxy acid), which reversible pathway is strongly pH dependent. The biological activity of the hydroxy acid has not been fully elucidated (Kingsbury et al., 1991). […] In the present study the bioavailability and pharmacoki- netics of oral topotecan are explored in patients with solid tumours with the aim of providing a basis for further development of clinical studies using chronic oral topotecan. […] The performance status had to be < 2 on the WHO scale and life expectancy >3 months. The minimum age was 18 and maximum age 75 years. The haemoglobulin had to be >6.0 mmol 1 -1 (9 g dl-'), WBC? 3500 ul -', granulocytes , 1000 l-d and platelets >100 000 jil-'. The serum creatinine had to be < 140 imol 1-1 (1.6 mg dl-'), the serum bilirubin <26 µmol 1` (1.5 mg dl-') and alkaline phospha- tase and transaminases <2 times the upper normal limit if liver metastases were absent or -5 times the upper normal limit if liver metastases were present. Topotecan was administered orally and intravenously at a dose of 1.5 mg m-2. Topotecan as supplied for intravenous infusion was diluted for oral dosage. […] The dose was placed in a beaker containing 100 ml of 5% dextrose injection solution. On day 1, patients were asked to drink the entire contents. Subsequently, an additional 100 ml of 5% dextrose injection solution was added to the beaker and taken by the patient. On day 2 topotecan was administered at the same dose as a continuous 30 min intravenous infusion.

[1] = Acute tolerability of oral drinking solution and i.v. infusion of topotecan in patients; type: in vivo, human
Text: British Journal of Cancer (1996) 73, 1268-1271 ff* (C) 1996 Stockton Press All rights reserved 0007-0920/96 $12.00 Bioavailability and pharmacokinetics of oral topotecan: a new topoisomerase I inhibitor JHM Schellens', GJ Creemers', JH Beijnen2, H Rosing2, M de Boer-Dennert', M McDonald3, B Davies4 and J Verweij' 'Department of Medical Oncology, Rotterdam Cancer Institute, 3075 EA Rotterdam, The Netherlands; 2Slotervaart Hospital, Amsterdam, The Netherlands; 3SmithKline & Beecham, UK; 4SmithKline & Beecham, USA. […] The oral dose of 1.5 mg m 2 was administered as a drinking solution of 200 ml on day 1. The i.v. dose of 1.5 mg m-2 was administered as a 30 min continuous infusion on day 2. The bioavailability was calculated as the ratio of the oral to i.v. area under the curve (AUC) calculated up to the last measured time point. […] Keywords: topotecan; bioavailability; topoisomerase I inhibitor Topotecan (SKF 104864) [(S)-9-dimethylaminomethyl-10- hydroxycamptothecin hydrochloride] is a semisynthetic water-soluble analogue of camptothecin (Hsiang and Liu, 1988). Like camptothecin, topotecan is a specific inhibitor of topoisomerase I (Hsiang and Liu, 1988). Topotecan incorporates a stable basic side-chain at the 9-position of the A-ring, which provides water solubility at acid pH. […]

[2] = set-up: method as in unpublished data; details: mean (s.d. 16.3), ref unpublished data; cited from earlier work
[3] = Table I, patients 1-12 in order, oral 1.5 mg m-2

CC[C@@](O)(C(=O)O)c1cc2n(c(=O)c1CO)Cc1cc3c(CN(C)C)c(O)ccc3nc1-2 [hydroxy acid]
plasma concentration-time curves of the hydroxy acid compared with topotecan (clinical; human, in vivo): higher than those of topotecan | ratio of the AUC(t) of the hydroxy acid after oral and i.v. administration (clinical; human, in vivo): 0.38 ± 0.12 | Cmax of the hydroxy acid (clinical; human, in vivo, iv): 18.97 ± 2.44 ng/mL | terminal t1/2 of the hydroxy acid (clinical; human, in vivo, iv): 3.22 ± 0.73 h | AUC(t) of hydroxy acid, i.v. (clinical; human, in vivo, iv, 1.5 mg): 73.25 ng/h/mL | Cmax of the hydroxy acid (clinical; human, in vivo, po): 7.50 ± 2.57 ng/mL | Cmax of the hydroxy acid, range (clinical; human, in vivo, po): 4.66 + 12.32 ng ml-1 | plasma concentration on day 2, before administration of the second dose (clinical; human, in vivo, po): undetectable | terminal t1/2 of the hydroxy acid (clinical; human, in vivo, po): 2.82 ± 0.85 h | AUC(t) of hydroxy acid, oral (clinical; human, in vivo, po, 1.5 mg): 31.41 ng/h/mL

CC[C@@]1(O)C(=O)OCc2c1cc1n(c2=O)Cc2cc3c(CN(C)C)c(O)ccc3nc2-1 [topotecan, (S)-9-dimethylaminomethyl-10-hydroxycamptothecin hydrochloride]
Cmax, i.v. (individual patients) (clinical; Table I, patients 1-12 in order, i.v. 1.5 mg m-2): 41.08 ng/mL and 35.92 ng/mL and 43.86 ng/mL and 33.40 ng/mL and 47.18 ng/mL and 40.35 ng/mL and 41.41 ng/mL and 41.21 ng/mL and 42.11 ng/mL and 25.35 ng/mL and 19.57 ng/mL | Cmax, oral (individual patients) (clinical; [3]): 5.93 ng/mL and 5.16 ng/mL and 5.45 ng/mL and 5.71 ng/mL and 7.14 ng/mL and 4.71 ng/mL and 5.08 ng/mL and 6.48 ng/mL and 6.67 ng/mL and 5.38 ng/mL and 6.93 ng/mL | Tmax, oral (individual patients) (clinical; [3]): 0.5 h (3×) and 1.03 h (2×) and 0.33 h and 1.13 h and 0.52 h and 0.55 h and 2.5 h and 1.5 h and 1.0 h | F (individual patients) (clinical; Table I, patients 1-12 in order, ratio AUC(t) oral/i.v.): 21% and 30% (2×) and 25% and 38% and 23% (2×) and 22% and 45% and 34% and 35% and 36% | plasma concentration on day 2, before administration of the second dose (clinical; day after oral dose 1.5 mg m-2, LLQ 0.1 ng ml-1): undetectable | Cmax (clinical; human, in vivo, iv, 1.5 mg, i.v. (individual patients)): 41.8 ng/mL | clearance (clinical; human, plasma, iv, 1.5 mg): 535 to 1070 mL/min | clearance (clinical; human, plasma, iv, 1.5 mg m-2): 824 ± 154 mL/min | half-life (clinical; human, plasma, iv, 1.5 mg m-2, half-life for the initial decline of the plasma concentration-time curve (t1/2 alpha), mean ± s.d., ten patients fitted with a biexponential model): 0.186 h | half-life (clinical; human, plasma, iv, 1.5 mg m-2, t1/2 beta, after i.v., the patient with the highest bioavailability of 45%): 1.8 h | half-life (clinical; human, plasma, iv, 1.5 mg m-2, t1/2 beta, mean ± s.d., n=12): 2.4 h | half-life (clinical; human, plasma, iv, 1.5 mg m-2, t1/2 beta, range, n=12): 1.72 to 2.93 h | Vd (clinical; human, plasma, iv, mean ± s.d., n=12): 128 L | Vd (clinical; human, plasma, iv, range, n=12): 86 to 231 L | Cmax (clinical; human, plasma, iv, 1.5 mg, mean of 12 patients, i.v. 1.5 mg m-2): 37.8 ng/mL | Tmax (clinical; human, plasma, po, 1.5 mg m-2, Tmax, range of the other 11 patients, without the patient with Tmax 2.5 h): 0.33 to 1.5 h | half-life (clinical; human, plasma, po, 1.5 mg m-2, t1/2 beta, after oral administration, the patient with the highest bioavailability of 45%): 3.2 h | half-life (clinical; human, plasma, po, 1.5 mg m-2, t1/2 beta, mean, n=10): 2.43 h | half-life (clinical; human, plasma, po, 1.5 mg m-2, t1/2 beta, range, n=10): 1.02 to 3.2 h | Cmax (clinical; human, plasma, po, 1.5 mg, mean of 12 patients, oral 1.5 mg m-2): 5.88 ng/mL | Cmax (clinical; human, plasma, po, 1.5 mg, oral (individual patients), Table I, patients 1-12 in order, oral 1.5 mg m-2): 5.95 ng/mL | Tmax (clinical; human, plasma, po, 1.5 mg, time to maximum plasma concentration (Tmax), median, oral 1.5 mg m-2, 12 patients): 0.78 h | Tmax (clinical; human, plasma, po, 1.5 mg, time to maximum plasma concentration (Tmax), range, oral 1.5 mg m-2, 12 patients): 0.33 to 2.5 h | AUC(t), range (clinical; i.v. 1.5 mg m-2): 32.50 to 73.68 ng/h/mL | AUCoo, range (clinical; i.v. 1.5 mg m-2): 43.70 to 81.08 ng/h/mL | bioavailability (ratio of oral to i.v. AUC(t)) (clinical; mean (s.d. 7.7), oral drinking solution 1.5 mg m-2 day 1 vs 30 min i.v. infusion 1.5 mg m-2 day 2, 12 patients): 30% | bioavailability if curves extrapolated to infinity (AUCoo) (clinical; mean (s.d. 11.5), oral vs i.v. 1.5 mg m-2): 32% | AUC(t) (clinical; mean ± s.d., i.v. 1.5 mg m-2): 49.87 ± 10.87 ng/h/mL | total plasma clearance (Cl) (clinical; mean ± s.d., i.v. 1.5 mg m-2 30 min infusion, n=12): 824+ 154 ml min-1 | AUCoo (clinical; mean ± s.d., i.v. 1.5 mg m-2, extrapolated to infinity): 61.02 ± 10.57 ng/h/mL | AUC(t) (clinical; mean ± s.d., oral 1.5 mg m-2, up to latest measured time point): 15.18 ± 5.51 ng/h/mL | AUC(t), range (clinical; oral 1.5 mg m-2): 9.38 to 25.37 ng/h/mL | bioavailability (ratio of oral to i.v. AUC(t)), range (clinical; range over 12 patients, oral vs i.v. 1.5 mg m-2): 21-45% | acute side-effects ([1]; i.v. and oral 1.5 mg m-2, 12 patients): Neither i.v. nor oral administration was associated with any significant acute side-effect | tolerability of the oral drinking solution ([1]; oral 1.5 mg m-2 in 200 ml, 12 patients): well tolerated | bioavailability after oral administration in dogs [2]: 35.7%
